# Experiments:
# [1] = Henry solubility constant Hcp at 294 K (mol/(m3 Pa))
# [2] = Henry solubility constant Hcp at 298.15 K (mol/(m3 Pa))
# [3] = Henry solubility constant Hcp at 291 K (mol/(m3 Pa))
# [4] = Henry solubility constant Hcp at 278 K (mol/(m3 Pa))
# [5] = Henry solubility constant Hcp at 288 K (mol/(m3 Pa))
# [6] = Henry solubility constant Hcp at 293 K (mol/(m3 Pa))
# [7] = Henry solubility constant Hcp at 295 K (mol/(m3 Pa))
# [8] = Henry solubility constant Hcp at 301 K (mol/(m3 Pa)); conditions: reference: Nelson and Hoff (1968)
# [9] = Henry solubility constant Hcp at 296 K (mol/(m3 Pa))
# [10] = Henry solubility constant Hcp at 303 K (mol/(m3 Pa))
# [11] = reference: Murphy et al. (1983a)
# [12] = reference: Treves et al. (2000)
# [13] = reference: O’Sullivan et al. (1996)
# [14] = reference: Pividal et al. (1992)
compound,measurement,setting,value
"Clc1cc(Cl)c(-c2ccc(Cl)c(Cl)c2Cl)cc1Cl [2,2',3,4,4',5'-hexachlorobiphenyl]",Henry solubility constant Hcp at 294 K,[1]; reference: Brownawell (1986),0.14
same,Henry solubility constant Hcp,[2]; [11],0.021
CCC(O)CO[N+](=O)[O-] (stereo not drawn) [1-nitrooxy-2-butanol],Henry solubility constant Hcp at 291 K,[3]; [12],89
CC(O)CCO[N+](=O)[O-] (stereo not drawn) [4-nitrooxy-2-butanol],Henry solubility constant Hcp at 291 K,[3]; [12],130
CC(=O)OO [ethanoic peroxyacid],Henry solubility constant Hcp,[2]; reference: Lind and Kok (1994),6.5
same,Henry solubility constant Hcp,[2]; [13],8.3
same,Henry solubility constant Hcp at 278 K,[4]; reference: Sauer (1997),24
CC(C)O [2-propanol],Henry solubility constant Hcp at 288 K,[5]; [14],1.4
same,Henry solubility constant Hcp,[2]; reference: Butler et al. (1935),1.2
same,Henry solubility constant Hcp,[2]; reference: Kim et al. (2000),1.1
same,Henry solubility constant Hcp,[2]; reference: Lin and Chou (2006),1.3
same,Henry solubility constant Hcp,[2]; reference: Snider and Dawson (1985),1.2
same,Henry solubility constant Hcp at 293 K,[6]; reference: Yu (1992),0.98
COO [methyl hydroperoxide],Henry solubility constant Hcp,[2]; reference: Li et al. (2004),2.5
same,Henry solubility constant Hcp,[2]; reference: Lind and Kok (1994),3
same,Henry solubility constant Hcp,[2]; reference: Magi et al. (1997),> 6.9
same,Henry solubility constant Hcp,[2]; [13],3.1
same,Henry solubility constant Hcp at 278 K,[4]; reference: Sauer (1997),12
CCOO [ethyl hydroperoxide],Henry solubility constant Hcp,[2]; [13],3.3
same,Henry solubility constant Hcp at 278 K,[4]; reference: Sauer (1997),11
O=[O+][O-] [ozone],Henry solubility constant Hcp at 291 K,[3]; reference: Schöne (1873),0.00012
same,Henry solubility constant Hcp,[2]; reference: Andreozzi et al. (1996),9.2e-05
same,Henry solubility constant Hcp,[2]; reference: Briner and Perrottet (1939),0.00013
same,Henry solubility constant Hcp,[2]; reference: Fischer and Tropsch (1917),0.0002
same,Henry solubility constant Hcp,[2]; reference: Gershenzon et al. (2001),0.00011
same,Henry solubility constant Hcp,[2]; reference: Kilpatrick et al. (1956),9.9e-05
same,Henry solubility constant Hcp,[2]; reference: Kosak-Channing and Helz (1983),0.00011
same,Henry solubility constant Hcp,[2]; reference: Luther (1905),8e-05
same,Henry solubility constant Hcp,[2]; reference: Mailfert (1894),0.00012
same,Henry solubility constant Hcp,[2]; reference: Rischbieter et al. (2000),9.9e-05
same,Henry solubility constant Hcp,[2]; reference: Sotelo et al. (1989),0.00012
same,Henry solubility constant Hcp,[2]; reference: Stumm (1958),0.00012
same,Henry solubility constant Hcp at 293 K,[6]; reference: Gurol and Singer (1982),0.00017
same,Henry solubility constant Hcp at 293 K,[6]; reference: Levanov et al. (2008),0.00011
[O]N=O [nitrogen dioxide],Henry solubility constant Hcp at 295 K,[7]; reference: Lee and Schwartz (1981),6.9e-05
same,Henry solubility constant Hcp at 288 K,[5]; reference: Komiyama and Inoue (1980),0.00023
same,Henry solubility constant Hcp,[2]; reference: Cheung et al. (2000),0.00012
"Clc1ccc(Cl)c(-c2ccc(Cl)c(Cl)c2)c1 [2,3',4',5-tetrachlorobiphenyl]",Henry solubility constant Hcp at 294 K,[1]; reference: Brownawell (1986),0.11
same,Henry solubility constant Hcp,[2]; [11],0.049
O=COO [methanoic peroxyacid],Henry solubility constant Hcp at 278 K,[4]; reference: Sauer (1997),29
CI [iodomethane],Henry solubility constant Hcp at 294 K,[1]; reference: Gan and Yates (1996),0.0019
same,Henry solubility constant Hcp,[2]; reference: Balls (1980),0.002
same,Henry solubility constant Hcp,[2]; reference: Elliott and Rowland (1993),0.002
same,Henry solubility constant Hcp,[2]; reference: Glew and Moelwyn-Hughes (1953),0.0019
same,Henry solubility constant Hcp,[2]; reference: Hunter-Smith et al. (1983),0.0019
same,Henry solubility constant Hcp,[2]; reference: Swain and Thornton (1962),0.0018
BrBr [bromine (molecular)],Henry solubility constant Hcp at 288 K,[5]; reference: Jones (1911),0.014
same,Henry solubility constant Hcp,[2]; reference: Hill et al. (1968),0.0068
same,Henry solubility constant Hcp,[2]; reference: Kelley and Tartar (1956),0.007
same,Henry solubility constant Hcp,[2]; reference: Winkler (1899),0.0079
same,Henry solubility constant Hcp,[2]; reference: Winkler (1906),0.0078
same,Henry solubility constant Hcp at 293 K,[6]; reference: Jenkins and King (1965),0.0096
"Clc1ccc(-c2ccccc2Cl)cc1 [2,4'-dichlorobiphenyl]",Henry solubility constant Hcp at 294 K,[1]; reference: Brownawell (1986),0.057
same,Henry solubility constant Hcp,[2]; reference: Charles and Destaillats (2005),0.023
same,Henry solubility constant Hcp,[2]; [11],0.045
CC(C)CC=O [3-methylbutanal],Henry solubility constant Hcp,[2]; reference: Bruneel et al. (2016),0.011
same,Henry solubility constant Hcp,[2]; reference: Pollien et al. (2003),0.026
same,Henry solubility constant Hcp,[2]; reference: Wieland et al. (2015),0.024
same,Henry solubility constant Hcp at 301 K,[8],0.02
O=[N+]([O-])OCCCCO [4-nitrooxy-1-butanol],Henry solubility constant Hcp at 291 K,[3]; [12],290
c1ccccc1 [benzene],Henry solubility constant Hcp at 295 K,[7]; reference: de Wolf and Lieder (1998),0.0022
same,Henry solubility constant Hcp,[2]; reference: Alaee et al. (1996),0.0018
same,Henry solubility constant Hcp,[2]; reference: Allen et al. (1998),0.0018
same,Henry solubility constant Hcp,[2]; reference: Bakierowska and Trzeszczyński (2003),0.0018
same,Henry solubility constant Hcp,[2]; reference: Bierwagen and Keller (2001),0.0019
same,Henry solubility constant Hcp,[2]; reference: Bissonette et al. (1990),0.0016
same,Henry solubility constant Hcp,[2]; reference: Brown and Wasik (1974),0.0017
same,Henry solubility constant Hcp,[2]; reference: Cooling et al. (1992),0.0017
same,Henry solubility constant Hcp,[2]; reference: Ervin et al. (1980),0.0012
same,Henry solubility constant Hcp,[2]; reference: Ettre et al. (1993),0.0018
same,Henry solubility constant Hcp,[2]; reference: Green and Frank (1979),0.0018
same,Henry solubility constant Hcp,[2]; reference: Görgényi et al. (2002),0.0017
same,Henry solubility constant Hcp,[2]; reference: Hartkopf and Karger (1973),0.0021
same,Henry solubility constant Hcp,[2]; reference: Keeley et al. (1988),0.0017
same,Henry solubility constant Hcp,[2]; reference: Khalfaoui and Newsham (1994b),0.0017
same,Henry solubility constant Hcp,[2]; reference: Lau et al. (2010),0.0014
same,Henry solubility constant Hcp,[2]; reference: Lei et al. (2004),0.0014
same,Henry solubility constant Hcp,[2]; reference: Li et al. (2008),0.0018
same,Henry solubility constant Hcp,[2]; reference: Lodge and Danso (2007),0.0025
same,Henry solubility constant Hcp,[2]; reference: Mackay et al. (1979),0.0018
same,Henry solubility constant Hcp,[2]; reference: Nielsen et al. (1994),0.002
same,Henry solubility constant Hcp,[2]; reference: Park et al. (1997),0.0014
same,Henry solubility constant Hcp,[2]; reference: Peng and Wan (1997),0.0019
same,Henry solubility constant Hcp,[2]; reference: Peng and Wan (1998),0.0022
same,Henry solubility constant Hcp,[2]; reference: Perlinger et al. (1993),0.0017
same,Henry solubility constant Hcp,[2]; reference: Robbins et al. (1993),0.0018
same,Henry solubility constant Hcp,[2]; reference: Sanemasa et al. (1981),0.0017
same,Henry solubility constant Hcp,[2]; reference: Sieg et al. (2009),0.0017
same,Henry solubility constant Hcp,[2]; reference: Tsibul’skii et al. (1979),0.0016
same,Henry solubility constant Hcp,[2]; reference: Tsonopoulos and Wilson (1983),0.0018
same,Henry solubility constant Hcp,[2]; reference: Turner et al. (1996),0.0016
same,Henry solubility constant Hcp,[2]; reference: Vitenberg et al. (1975),0.0018
same,Henry solubility constant Hcp,[2]; reference: Warner et al. (1980),0.0018
same,Henry solubility constant Hcp,[2]; reference: Wasik and Tsang (1970),0.0016
same,Henry solubility constant Hcp at 296 K,[9]; reference: Anderson (1992),0.0018
same,Henry solubility constant Hcp at 296 K,[9]; reference: Miller and Stuart (2000),0.0018
same,Henry solubility constant Hcp at 303 K,[10]; reference: Saylor et al. (1938),0.0015
same,Henry solubility constant Hcp at 293 K,[6]; reference: Vitenberg et al. (1974),0.0012
same,Henry solubility constant Hcp at 293 K,[6]; reference: Yu (1992),0.0019
same,Henry solubility constant Hcp at 293 K,[6]; reference: Yurteri et al. (1987),0.0013
CCOC(C)=O [ethyl ethanoate],Henry solubility constant Hcp at 288 K,[5]; reference: Ioffe et al. (1984),0.13
same,Henry solubility constant Hcp at 288 K,[5]; [14],0.11
same,Henry solubility constant Hcp,[2]; reference: Ammari and Schroen (2019),0.052
same,Henry solubility constant Hcp,[2]; reference: Aprea et al. (2007),0.051
same,Henry solubility constant Hcp,[2]; reference: Butler and Ramchandani (1935),0.074
same,Henry solubility constant Hcp,[2]; reference: Druaux et al. (1998),0.066
same,Henry solubility constant Hcp,[2]; reference: Fenclová et al. (2014),0.062
same,Henry solubility constant Hcp,[2]; reference: Jones et al. (1988),0.062
same,Henry solubility constant Hcp,[2]; reference: Kieckbusch and King (1979b),0.058
same,Henry solubility constant Hcp,[2]; reference: Kutsuna and Kaneyasu (2021),0.059
same,Henry solubility constant Hcp,[2]; reference: Kutsuna et al. (2005),0.059
same,Henry solubility constant Hcp,[2]; reference: Landy et al. (1995),0.057
same,Henry solubility constant Hcp at 301 K,[8],0.057
same,Henry solubility constant Hcp at 303 K,[10]; reference: Richon et al. (1985),0.043
CCC(CO)O[N+](=O)[O-] (stereo not drawn) [2-nitrooxy-1-butanol],Henry solubility constant Hcp at 291 K,[3]; [12],88
O=C(Cl)C(Cl)(Cl)Cl [trichloroacetylchloride],Henry solubility constant Hcp,[2]; reference: George et al. (1994a),0.02
same,Henry solubility constant Hcp,[2]; reference: Mirabel et al. (1996),0.02
same,Henry solubility constant Hcp at 278 K,[4]; reference: De Bruyn et al. (1995a),0.02
